Experimental data published in patent US20240393292A1, “ALLERGY ANTIGEN AND EPITOPE THEREOF” (HOYU CO., LTD., priority 2019, published 2024).

These substances were tested on IgE antibodies from patients (assay: Wheat epitope mapping (2): overlapping 10-amino-acid peptide fragments shifted by one amino acid). Settings: serum of patient P26 (WDEIA); partial sequence.
Assay type: binding, human
Summary of the method: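 Residual binding was banded as <30% none, 30–<50% poor, 50–<70% somewhat poor and ≥70% retained, relative to the parent overlapping sequence set to 100%. Values were chemiluminescent IgE signals from patient sera after subtracting secondary-antibody-only controls. The peptides were spot-synthesised 10-mers shifted by one amino acid.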
With “2724 (GIGTVPVGRV; REGION 1..10: note = epitope) [compound 2724]” the “Epitope sequence binding to IgE antibody, rank of the sequence” value (“Epitope sequence binding to IgE antibody” below) was “Key”.

Same assay, conditions: serum of patient P27 (WDEIA); partial sequence
For “2725 (YKIGG; REGION 1..5: note = epitope) [compound 2725]”, the “Epitope sequence binding to IgE antibody” value was “Preferably”.
“2726 (KIGG; REGION 1..4: note = epitope) [compound 2726]” was tested, and the “Epitope sequence binding to IgE antibody” value was “Key”.
“2727 (GIGTVPVGR; REGION 1..9: note = epitope) [compound 2727]” was tested, and the “Epitope sequence binding to IgE antibody” value was “Key”.

Same assay, conditions: serum of patient P28 (WDEIA); partial sequence
“2730 (YKIGGIGTV; REGION 1..9: note = epitope) [compound 2730]” was tested, and the “Epitope sequence binding to IgE antibody” value was “Preferably”.
In the case of “2731 (YKIGGI; REGION 1..6: note = epitope) [compound 2731]”, the “Epitope sequence binding to IgE antibody” value is reported as “Key”.

Same assay, conditions: serum of patient P29 (WDEIA); partial sequence
“2733 (YKIGGI; REGION 1..6: note = epitope) [compound 2733]” was tested, and the “Epitope sequence binding to IgE antibody” value was “Preferably”.
For “2734 (YKIGG; REGION 1..5: note = epitope) [compound 2734]”, the “Epitope sequence binding to IgE antibody” value was “Key”.
“2735 (GIGTVPVGRV; REGION 1..10: note = epitope) [compound 2735]” was tested, and the “Epitope sequence binding to IgE antibody” value was “Key”.

Same assay, conditions: serum of patient P30 (WDEIA); partial sequence
In the case of “2736 (YKIGGIGTVP; REGION 1..10: note = epitope) [compound 2736]”, the “Epitope sequence binding to IgE antibody” value is reported as “Preferably”.
For “2737 (KIGG; REGION 1..4: note = epitope) [compound 2737]”, the “Epitope sequence binding to IgE antibody” value was “Key”.
In the case of “2738 (VPVGR; REGION 1..5: note = epitope) [compound 2738]”, the “Epitope sequence binding to IgE antibody” value is reported as “Key”.

Same assay, conditions: serum of patient P31 (WDEIA); partial sequence
“2739 (YKIGGIG; REGION 1..7: note = epitope) [compound 2739]” was tested, and the “Epitope sequence binding to IgE antibody” value was “Preferably”.
“2740 (KIGGI; REGION 1..5: note = epitope) [compound 2740]” was tested, and the “Epitope sequence binding to IgE antibody” value was “Key”.
With “2741 (GIGTVPVGRV; REGION 1..10: note = epitope) [compound 2741]” the “Epitope sequence binding to IgE antibody” value was “Key”.

Same assay, conditions: serum of patient P33 (WDEIA); partial sequence
In the case of “2742 (YKIGGIGTVP; REGION 1..10: note = epitope) [compound 2742]”, the “Epitope sequence binding to IgE antibody” value is reported as “Preferably”.
With “2743 (YKIGGIGTV; REGION 1..9: note = epitope) [compound 2743]” the “Epitope sequence binding to IgE antibody” value was “Key”.

Same assay, conditions: serum of patient P34 (WDEIA); partial sequence
“2745 (KIGGIG; REGION 1..6: note = epitope) [compound 2745]” was tested, and the “Epitope sequence binding to IgE antibody” value was “Preferably”.
For “2746 (KIGGI; REGION 1..5: note = epitope) [compound 2746]”, the “Epitope sequence binding to IgE antibody” value was “Key”.

Each substance was assayed on IgE antibody present in the serum of a wheat-allergic patient (assay: Wheat epitope mapping (1): peptide array of overlapping 15-amino-acid peptides, chemiluminescence). Settings: bound = chemiluminescence value minus N2nd value of 5 non-wheat-allergic subjects at least 35,000; serum of 49 patients.
Assay type: binding, human
Method: Epitope mapping was carried out using a library of overlapping peptides (length: 15 amino acids) corresponding to the amino acid sequences identified as allergy components of wheat. Specifically, the library of overlapping peptides was prepared on the basis of the amino acid sequences of SEQ ID NOs: 2, 4, 6, 8, 10, 12, 14, 16, 18, 20, 22, 24, 26 and 28.
The peptides to be synthesized were shifted by 10 amino acids.
For preparation of peptide arrays, the Intavis CelluSpots™ technique was used. Specifically, the peptide arrays were prepared by the following procedure: (1) synthesizing peptides of interest on amino-modified cellulose disks using an automated chemical synthesis apparatus (Intavis MultiPep RS), (2) dissolving the amino-modified cellulose disks to obtain a cellulose-bound peptide solution, and (3) spotting the cellulose-bound peptides onto coated glass slides. The details of each procedure are as described below.
Peptide synthesis was carried out in incremental steps through 9-fluorenylmethoxycarbonyl (Fmoc) chemical reaction on amino-modified cellulose disks in 384-well synthesis plates. Specifically, amino acids in which a Fmoc group is bonded to an amino group were activated in a solution of N,N′-diisopropylcarbodiimide (DIC) and 1-hydroxybenzotriazole (HOBt) in dimethylformamide (DMF) and added dropwise to the cellulose disks so that the Fmoc group-bound amino acids were bound to the amino groups on the cellulose disks (coupling). Unreacted amino groups were capped with acetic anhydride and washed with DMF. Furthermore, the Fmoc groups were eliminated from the amino groups of the amino acids bound to the amino groups on the cellulose disks by treatment with piperidine and washing with DMF. The amino acids bound to the amino groups on the cellulose disks were repetitively subjected to the coupling, the capping, and the Fmoc group elimination described above to elongate the amino terminus for peptide synthesis.
The peptides-bound cellulose disks of interest obtained above in the subsection titled “(1) Synthesis of peptide” were transferred to 96-well plates and treated with a side chain deprotection mixed solution of trifluoroacetic acid (TFA), dichloromethane, triisopropylsilane (TIPS), and water for deprotection of amino acid side chains. Then, the deprotected cellulose-bound peptides were dissolved in a mixed solution of TFA, […] acid (TFMSA), TIPS, and water and precipitated in […] methyl ether (TBME), and the precipitate was resuspended in dimethyl sulfoxide (DMSO) and mixed with a mixed solution of NaCl, sodium citrate, and water to obtain a peptide solution for slide spotting.
The peptide solution for slide spotting obtained above in the subsection titled “(2) Dissolution of amino-modified cellulose disk” was spotted onto Intavis CelluSpots™ slides using Intavis Slide Spotting Robot, and the slides were dried to prepare peptide arrays.
The presence or absence of binding, to each peptide fragment, of an IgE antibody present in the serum of a wheat-allergic patient was measured through antigen-antibody reaction using the peptide arrays. […]
With “SEQ ID NO: 29: common 15-residue epitope sequence of polypeptide (E1) (QQILWYHQQQPIQQQ; REGION 1..15: note = epitope)” the “binding of patient-specific IgE antibodies to 15-residue peptide” value (“binding … to 15-residue peptide” below) was “confirmed to bind”.
In the case of “SEQ ID NO: 131: common 15-residue epitope sequence of polypeptide (E2) (PPFPQQHQQFPQQQI; REGION 1..15: note = epitope)”, the “binding … to 15-residue peptide” value is reported as “confirmed to bind”.
With “SEQ ID NO: 191: common 15-residue epitope sequence of polypeptide (E3) (SQQQQPFPQQQQPLL; REGION 1..15: note = epitope)” the “binding … to 15-residue peptide” value was “confirmed to bind”.
For “SEQ ID NO: 281: common 15-residue epitope sequence of polypeptide (E4) (QQPQQPFPQQQQPLI; REGION 1..15: note = epitope)”, the “binding … to 15-residue peptide” value was “confirmed to bind”.
In the case of “SEQ ID NO: 346: common 15-residue epitope sequence of polypeptide (E5) (PQQSFPQQQRPFIQP; REGION 1..15: note = epitope)”, the “binding … to 15-residue peptide” value is reported as “confirmed to bind”.
For “SEQ ID NO: 414: common 15-residue epitope sequence of polypeptide (E6) (KWRAVLKIGATEPSQ; REGION 1..15: note = epitope)”, the “binding … to 15-residue peptide” value was “confirmed to bind”.
With “SEQ ID NO: 493: common 15-residue epitope sequence of polypeptide (E7) (PQQPYPQQQPQYLQP; REGION 1..15: note = epitope)” the “binding … to 15-residue peptide” value was “confirmed to bind”.
In the case of “SEQ ID NO: 562: common 15-residue epitope sequence of polypeptide (E8) (KPSQQQPLPLQQILW; REGION 1..15: note = epitope)”, the “binding … to 15-residue peptide” value is reported as “confirmed to bind”.
In the case of “SEQ ID NO: 640: common 15-residue epitope sequence of polypeptide (E9) (QVPLVQQQQFPGQQQ; REGION 1..15: note = epitope)”, the “binding … to 15-residue peptide” value is reported as “confirmed to bind”.
With “SEQ ID NO: 706: common 15-residue epitope sequence of polypeptide (E10) (VILFEETLYQSTKGG; REGION 1..15: note = epitope)” the “binding … to 15-residue peptide” value was “confirmed to bind”.
In the case of “SEQ ID NO: 776: common 15-residue epitope sequence of polypeptide (E11) (QPYPQPQPFPSQQPY; REGION 1..15: note = epitope)”, the “binding … to 15-residue peptide” value is reported as “confirmed to bind”.
“SEQ ID NO: 899: common 15-residue epitope sequence of polypeptide (E12) (LGQQQQQFPGQQQPF; REGION 1..15: note = epitope)” was tested, and the “binding … to 15-residue peptide” value was “confirmed to bind”.
“SEQ ID NO: 974: common 15-residue epitope sequence of polypeptide (E13) (QPFPQQQQPIIILQQ; REGION 1..15: note = epitope)” was tested, and the “binding … to 15-residue peptide” value was “confirmed to bind”.
In the case of “SEQ ID NO: 1010: common 15-residue epitope sequence of polypeptide (E14) (WLQQQLVPQLQQPLS; REGION 1..15: note = epitope)”, the “binding … to 15-residue peptide” value is reported as “confirmed to bind”.
In the case of “SEQ ID NO: 1089: common 15-residue epitope sequence of polypeptide (E15) (STKGGKPFVDILKAG; REGION 1..15: note = epitope)”, the “binding … to 15-residue peptide” value is reported as “confirmed to bind”.
In the case of “SEQ ID NO: 1142: common 15-residue epitope sequence of polypeptide (E16) (TEPSQLSIDQNAQGL; REGION 1..15: note = epitope)”, the “binding … to 15-residue peptide” value is reported as “confirmed to bind”.
In the case of “SEQ ID NO: 1166: common 15-residue epitope sequence of polypeptide (E17) (PGQQQQFPPQQPYPQ; REGION 1..15: note = epitope)”, the “binding … to 15-residue peptide” value is reported as “confirmed to bind”.
With “SEQ ID NO: 1209: common 15-residue epitope sequence of polypeptide (E18) (PIQQQPQPFPQQPPC; REGION 1..15: note = epitope)” the “binding … to 15-residue peptide” value was “confirmed to bind”.
For “SEQ ID NO: 1257: common 15-residue epitope sequence of polypeptide (E19) (SSLVSMILPRSDCKV; REGION 1..15: note = epitope)”, the “binding … to 15-residue peptide” value was “confirmed to bind”.
With “SEQ ID NO: 1297: common 15-residue epitope sequence of polypeptide (E20) (SINVENVEDNRRALR; REGION 1..15: note = epitope)” the “binding … to 15-residue peptide” value was “confirmed to bind”.
For “SEQ ID NO: 1367: common 15-residue epitope sequence of polypeptide (E21) (KPWQQQPLPPQQQPP; REGION 1..15: note = epitope)”, the “binding … to 15-residue peptide” value was “confirmed to bind”.
